pIC50: −log10 of the molar value. Like-named read-outs stand apart in the source and are kept apart here. Blank lines part the entries; values can stand above or below the compound they belong to.
Experiments:
[1] = tested on: UCI101 ovarian cancer cells; test: Western blot of signal transduction events, UCI101; type: cell-based; details: 36 hours
Protocol: All these agents are microtubule interfering agents but with different binding sites. Cells were harvested at 0, 4, 8, 16 and 36 hours after drug treatment for Western blot analysis. […] Phosphorylation of both Cdc25C and Cdc2 disappeared after 16 hours and slightly recovered at 36 hours. […] Akt phosphorylation decreased after 16 hours of treatment.
In order to understand the mechanism of resistance of stilbenes, various signal transduction pathways were investigated to examine how cells respond to stilbene treatment. UCI101 ovarian cancer cells were treated with stilbenes 4a, 4c or paclitaxel (Taxol) at 0.1 μM for 0, 4, 8, 16 and 36 hours. Cells were harvested for Western blotting. Changes in the kinases involved in cell cycle progression from G2-M transition were first determined in Cdc2, Cdc25c, and mitotic spindle check point regulator BubR1. […] 36 hours after treatment, rephosphorylation of Cdc2 was observed. […] The higher molecular weight isomer of Cdc25c, the mitotic form, increased at 16 and 36 hours. […] A similar study was then performed with other microtubule interfering agents such as combretastatin A4, 13a and vincristine for comparison. A similar trend was observed among these three microtubule interfering agents (FIG. 18).

[2] = tested on: SKOV3 ovarian cancer cells; test: Alamar Blue cell growth inhibition, SKOV3; type: cell-based
Protocol: Cells were incubated with various concentrations of the compounds for 48 hours. Cell growth was measured by Alamar Blue™ staining and the percentage of cell growth inhibition was calculated and compared with the control cells that were treated with 0.1% DMSO, the vehicle for the stilbene compounds.
(§1) Various cancer cell lines were grown in 96-well plates for drug sensitivity assays. Once cells achieved 50% confluence, the incubation media was changed to the same cell growth media with different concentrations of the tested compounds or vehicle alone. Cells were then incubated for 48 hours before the cell growth inhibition study. To determine the degree of cell growth inhibition, 1/10 volume of Alamar Blue™ solution was added to each well and optical density (OD) at 570 and 600 nm was determined. The percentage of growth inhibition was calculated according to the manufacturer's formula as follows: The percentage of growth is [(117216×A570)−(80586×A600)]/[(117216×A^o570)−(80586×A^o600)]×100. In this formula, A570 is the absorbance of the treated samples at 570 nm; A600 is the absorbance of the treated samples at 600 nm; A^o570 is the absorbance of the […] samples at 570 nm; and A^o600 is the absorbance of the untreated samples at 600 nm. The two constants, 117216 and 80586, are the extinction coefficients of Alamar Blue™ at 570 and 600 nm respectively. Each concentration was repeated in triplicate to minimize the error.

[3] = tested on: UCI101 cells; test: immunofluorescent staining of tubulin, UCI101; type: cell-based; details: CA4 10 nM, stilbene 4a 100 nM, 5b 3 μM; 16 hours
From the text: Nuclei were stained with DAPI.

[4] = tested on: MiaPaCa2 pancreatic cancer cells; test: Alamar Blue cell growth inhibition, MiaPaCa2; type: cell-based
Protocol: as §1
(§2) We first tested the cytotoxic effect of various stilbene derivatives for their in vitro efficacy of suppressing tumor cell proliferation. Cells were first plated in 96-well plates at 50% confluence and treated with 0, 0.01, 0.03, 0.1, 0.3, 1.0, 3.0, 10 μM concentrations of stilbene derivatives for 48 hours in triplicate. Alamar Blue™ reagent was added into each well at 1/10 volume and incubated for 2 hours before quantification of the absorbance at 570 and 600 nm.

[5] = tested on: Chk2−/− cells; test: cell cycle analysis, Chk2-/- MDA-MB231 derivative; type: cell-based; details: 16 hours
Protocol: (§3) Cells were treated with various concentrations of stilbene 4a or CA4 for 16 hours followed by PI staining and FACscan analysis. […] A unique feature of stilbene 4a was noted when cells were treated with 30 nM.
(§4) Due to the structural similarity between stilbene 4a and CA4, we investigated the difference in the biological activity of these two compounds in MDA-MB231 breast cancer cells and their Chk2−/− derivatives. […] MDA-MB231 cells were treated with 10 nM stilbene 4a or 1 nM CA4. […] However, a difference in cell cycle change was observed following treatment with 30 nM of stilbene 4a versus 3 nM of CA4. […] This was also the case for cells treated with 100 nM stilbene 4a. A significant subG1/0 population was also noted. […] One possible effect could be a DNA damage response, which is a common mechanism of multiple chemotherapeutic agents but not one of pure microtubule-interfering agents such a paclitaxel or vincristine. […] We then obtained conditional Chk1−/− and Chk2−/− cells, which were derived from the same MDA-MB231 cells for the same flow cytometry analysis. […] In contrast, Chk2−/− cells were more sensitive to stilbene 4a. […] This mechanism is not obvious in higher drug concentrations at which the G2 arrest from microtubule interference is dominant. Therefore, in addition to their microtubule interfering effect, stilbenes have another mechanism to induce cell death. Thus, the use of a Chk2 inhibitor in combination with stilbenes may be a viable approach to enhancing the beneficial therapeutic effects of stilbenes.

[6] = tested on: Chk1−/− cells; test: cell cycle analysis, Chk1-/- MDA-MB231 derivative; type: cell-based
Protocol: as §4

[7] = clinical studies; cited from earlier work
[8] = tested on: MDA-MB231 cells; test: immunofluorescent staining of tubulin, MDA-MB231; type: cell-based; details: CA4 10 nM, stilbene 4a 100 nM, vincristine 100 nM, 5b 3 μM; 16 hours
From the text: Nuclei were stained with 4′,6-diamidino-2-phenylindole (DAPI). Control cells show the reticular pattern of the microtubule network.

[9] = tested on: SNU423 hepatocellular carcinoma cells; test: Alamar Blue cell growth inhibition, SNU423; type: cell-based
Summary of the method: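 Cells at 50% confluence were treated for 48 h in triplicate with 0-10 μM compound or 0.1% DMSO vehicle. Alamar Blue was added at 1/10 volume for 2 h, and absorbance at 570 and 600 nm gave % growth via the manufacturer's extinction-coefficient formula relative to vehicle controls.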

[10] = tested on: MDA-MB231 breast cancer cells; test: Alamar Blue cell growth inhibition, MDA-MB231; type: cell-based
Protocol: Cell growth was measured by Alamar Blue™ staining and the percentage of cell growth inhibition was calculated and compared with control cells that were treated with 0.1% DMSO, the vehicles for the stilbene compounds.
as §1, §2

[11] = tested on: UCI101 ovarian cancer cells; test: Alamar Blue cell growth inhibition, UCI101; type: cell-based; details: UCI101, 48 hours
Protocol: Cell growth was measured by AlamarBlue™ staining and the percentage of cell growth inhibition was calculated and compared with the control cells that were treated with 0.1% DMSO, the vehicles for the stilbene compounds.
Cells were treated with the tested drug for 2 days before analysis of cell growth by Alamar Blue™ staining. Cells treated with 0.1% DMSO were used as control and set as 100%.
(a) In vitro sensitivity of UCI101 cells toward three potential stilbene prodrugs, 5a-c, was tested in 96-well plates using Alamar Blue™ assays to determine cell growth inhibition. […] (b) 5b induces cell cycle change and apoptosis in UCI101 cells. Cells were incubated with 5b at 1, 3, 10 μM for 16 hours followed by PI staining and flow cytometry analysis. A subG0/1 population, representing apoptotic cells, appeared along with a decrease of the G1/G2 ratio after cells were treated with 3 μM 5b. Higher concentration (10 μM) of 5b completely killed cells, as was the case with stilbene 4a at […]. (c) Cells treated with stilbene 4a and 5b were stained with phospho-histone 3B, a mitotic marker. The positive signals of phospho-histone 3B were shown in green and nuclei were stained with DAPI in blue. […] (d) In vivo efficacy of 5b compared with stilbene 4a. Nude mice were injected with UCI101 ovarian cancer cells and treated with 7 doses of 5b,c or stilbene 4a every 2-3 days. Tumor volume was calculated and plotted against days.
as §1, §2

[12] = tested on: MDA-MB231 breast cancer cells; test: cell cycle analysis, MDA-MB231; type: cell-based; details: 16 hours
Protocol: as §3, §4

[13] = tested on: tumor cell proliferation; test: suppression of tumor cell proliferation, cell line not stated; type: cell-based; details: read-out: IC50, suppressing tumor cell proliferation
Protocol: as §1

[14] = water solubility of stilbene and carbamate prodrug (salts and free base); type: physicochemical
Protocol: Stilbene prodrugs may be made by attaching to a stilbene derivative of interest (e.g. a stilbene derivative with anti-tumor activity), chemical groups (or moieties) that render the stilbene derivative more water soluble than before such a modification is carried out. By “water soluble” we mean that more than 20 mg compound can be fully dissolved in 1 mL of water. Further, the chemical groups that are attached to the stilbene derivative to make the derivative water soluble are labile (i.e. removable) in that, upon exposure to in vitro or in vivo hydrolyzing conditions, the chemical groups are removed or dissociated from the stilbene derivative by hydrolysis, releasing the active, anti-tumor form of the stilbene derivative. The chemical groups which are attached may themselves be biologically active, and are, at least, not biologically injurious to cells or mammals. […] As illustrated, morfolinoethyl-urea, morfolinoethyl-carbamate and triethylene glycol (TEG) groups (5a, 5b, 5c, respectively) may be used for this purpose.

SMILES: COc1ccc(/C=C\c2cc(OC)c(OC)c(OC)c2)cc1O [combretastatin A4, (Z)-2-Methoxy-5-[2-(3,4,5-trimethoxy-phenyl)-vinyl]-phenol, reference compound]
phosphorylation of Chk1 [1]: do not cause more phosphorylation of Chk1
effective concentration ([2]; SKOV): 10 nM
effective / active concentration ([2]; SKOV3, 48 hours): 0.01 µM
microtubule pattern [3]: complete disruption of microtubules
relative potency ([4]; MiaPaCa2): most effective
change of effective concentration versus MDA-MB231 [5]: decreased by three fold
sensitivity versus MDA-MB231 [6]: more resistant
dose above which cardiac toxicity, neurotoxicity and tumor pain were observed [7]: higher than 68 mg/m^2
microtubule pattern [8]: did not completely disrupt microtubule formation
relative potency ([9]; SNU423): most potent compound
effective concentration, blocking cell proliferation ([9]; SNU423, 48 hours): 0.003 µM
relative potency ([10]; MDA-MB231): most effective
relative potency / activity [11]: most active compound
cell cycle change at 10 nM stilbene 4a or 1 nM CA4 [12]: No change was observed

pIC50 ([13]; cell line not stated): 6.00
pIC50 ([9]; Homo sapiens, SNU-423, 48 h, read-out: IC50 (50% growth inhibition), SNU423, 48 hours): 6.00 to 6.52
SMILES: COc1cc(O)cc(/C=C\c2ccc(OC)c(N)c2)c1.Cl [10d, (Z)-3-[2-(3-Amino-4-methoxy-phenyl)-vinyl]-5-methoxy-phenol, hydrochloride]
effective concentration ([4]; MiaPaCa2, 48 hours): above 0.3 μM
effective concentration ([10]; MDA-MB231, 48 hours): above 0.3 μM
relative potency / activity [11]: less active than stilbene 4a

SMILES: COc1cc(/C=C\c2ccc(OC)cc2N)cc(OC)c1.O=C(O)C(=O)O [4b, (Z)2-[2-(3,5-Dimethoxy-phenyl)-vinyl]-5-methoxy-phenylamine oxalate]
pIC50 [13]: 7.10
water solubility (in words) [14]: enhanced by the formation of an oxalate salt
relative potency / activity [11]: less active than stilbene 4a
